From PMC10299677, “Fluorinated Benzofuran and Dihydrobenzofuran as Anti-Inflammatory and Potential Anticancer Agents” (International Journal of Molecular Sciences, 2023)
“Also recorded” adds a separate entry of the source.

Legend:
CCL2 = CCL2 release in LPS-treated macrophages (BMDM); type: cell-based, C57BL/6J mice; settings: for effect on CCL2 secretion: 10 µM for compound 1, 50 µM for others, LPS 24 h; for IC50: Mus musculus, Macrophage, compounds 30 min prior to 10 ng/mL LPS for 24 h
Description: (§1) C57BL/6J (10–15 weeks old) male mice were obtained from the animal care facility at the American University of Beirut. All animal procedures were performed following the recommendations of the IACUC (Institutional Animal Care and Use Committee approval 16-09-M379). BMDMs were prepared and characterized as described previously by our group. BMDMs were isolated from C57BL/6J mice by flushing the femur and tibia with RPMI-1640 culture media (Sigma-Aldrich R7388), and cells were collected and centrifuged at 300× g for 5 min. The supernatant was discarded, and the pellet was resuspended in 2 mL red blood lysis 10% (Sigma-Aldrich R7767) medium in PBS and incubated for 5 min at room temperature. After diluting the suspension of cells with 5 mL of RPMI containing 10% FBS and 1% penicillin–streptomycin, cells were centrifuged at 300× g for 5 min, and the cell pellet was resuspended in RPMI media containing 10% FBS supplemented with 15% L929-conditioned medium containing macrophage-colony stimulating factor (M-CSF1) and plated on […]. Cells were allowed to proliferate and differentiate for 5–6 days. Cells were harvested, washed, and allowed to adhere overnight in RPMI containing 10% FBS for treatment. Cells were previously characterized by flow cytometry as macrophages using this method. […] Cells were plated at 0.8 × 10^6 cells per 3.8 cm^2 well [27].
(§2) BMDMs were then treated with different concentrations of the benzofuran and dihydrobenzofuran derivatives for 30 min prior to the addition of 10 ng/mL LPS for 24 h. […] The supernatants were assessed for IL-6, PGE2, CCL2, and nitrite, the stable derivative of NO, as described previously.
(§3) IL-6, CCL2, nitrite (for NO), and PGE2 concentrations from 3–5 independent experiments were expressed as percentage of LPS alone and as mean ± SEM. COX activity was determined as percentage of PGE2 produced from exogenous arachidonic acid. Curve fitting and calculation of IC50 values were performed using GraphPad Prism (version 9.5.1 Software, La Jolla, CA, USA).

PGE2 = PGE2 release in LPS-treated macrophages (BMDM); type: cell-based, C57BL/6J mice; settings: for blocking of PGE2 formation in response to LPS: 50 µM; for blocking of PGE2 formation in response to LPS / effect on PGE2 production in response to LPS: 10 ng/mL LPS 24 h; for IC50: compounds 30 min prior to 10 ng/mL LPS for 24 h; for effect on PGE2 production in response to LPS: 10 µM for compounds 1, 7, 9, 50 µM for others
Description: as §1, §2, §3

COX-2 = molecular target: T1, COX-2 (Mus musculus, UniProt Q05769); assay: COX-2 activity: PGE2 from exogenous arachidonic acid in aspirin-pretreated, 24 h LPS-treated macrophages; type: cell-based, C57BL/6J mice; settings: 10 µM arachidonic acid; for effect on COX-2 activity: 50 µM, aspirin-pretreated LPS-treated macrophages; for IC50: aspirin-pretreated, 24 h LPS-treated macrophages
T1 construct: prior to the addition of LPS for 24 h to induce COX-2; endogenous in cells; host or cells: Bone marrow-derived macrophages from C57BL/6J mice, aspirin-pretreated, then LPS 24 h
T1 sequence (Q05769 18-604): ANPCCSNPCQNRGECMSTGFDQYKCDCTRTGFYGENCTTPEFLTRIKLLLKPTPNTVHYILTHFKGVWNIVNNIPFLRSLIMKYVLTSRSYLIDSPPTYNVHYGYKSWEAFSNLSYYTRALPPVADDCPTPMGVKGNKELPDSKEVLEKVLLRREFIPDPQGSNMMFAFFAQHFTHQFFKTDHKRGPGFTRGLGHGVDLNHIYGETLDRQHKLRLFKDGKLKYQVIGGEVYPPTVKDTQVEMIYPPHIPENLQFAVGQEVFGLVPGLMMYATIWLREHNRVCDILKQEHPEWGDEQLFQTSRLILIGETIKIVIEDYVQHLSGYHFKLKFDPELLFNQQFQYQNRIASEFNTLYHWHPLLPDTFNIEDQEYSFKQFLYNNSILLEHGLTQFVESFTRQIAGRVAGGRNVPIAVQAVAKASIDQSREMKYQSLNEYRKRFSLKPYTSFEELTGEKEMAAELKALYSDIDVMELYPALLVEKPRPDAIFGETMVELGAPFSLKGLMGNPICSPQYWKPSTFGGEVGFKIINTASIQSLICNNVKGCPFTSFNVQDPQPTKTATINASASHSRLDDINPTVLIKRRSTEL
Description: (A) Illustration for COX-1 activity assay. […] (B) COX-1 activity. […] (C) Illustration for COX-2 activity determination. Macrophages are treated with 10 µM of aspirin (ASA) for 30 min to block basal COX activity, washed, and treated with 10 ng/mL LPS for 24 h to induce COX-2. Cells are then washed and incubated 30 min with 50 µM of the different compounds prior to the addition of 10 µM of AA. The produced PGE2 mainly reflects COX-2 activity. (D) COX-2 activity. Percentage of LPS-treated cells was calculated, and data are represented as mean ± SEM (n = 4); * p < 0.05 versus AA for COX-1 activity, and versus LPS + ASA + AA for COX-2 activity (one-way ANOVA followed by Dunnett’s test).
(§4) For both COX-1 and COX-2 assays, the benzofuran compounds were then added to the cells for 30 min prior to the incubation with 10 µM arachidonic acid for another 30 min. PGE2 was then measured using an enzyme immunoassay, as described previously.
as §3

COX-1 = molecular target: T2, COX-1 (Homo sapiens, UniProt P23219); assay: COX-1 activity: PGE2 from exogenous arachidonic acid in HEK-293 cells overexpressing COX-1; type: cell-based; settings: for effect on COX-1 activity: 10 µM for compounds 1, 7, 9, 50 µM for others, 10 µM arachidonic acid; for IC50: HEK-293 overexpressing COX-1, compounds 30 min prior to 10 µM arachidonic acid
T2 construct: expressed in transfected cells
T2 sequence (P23219 24-599): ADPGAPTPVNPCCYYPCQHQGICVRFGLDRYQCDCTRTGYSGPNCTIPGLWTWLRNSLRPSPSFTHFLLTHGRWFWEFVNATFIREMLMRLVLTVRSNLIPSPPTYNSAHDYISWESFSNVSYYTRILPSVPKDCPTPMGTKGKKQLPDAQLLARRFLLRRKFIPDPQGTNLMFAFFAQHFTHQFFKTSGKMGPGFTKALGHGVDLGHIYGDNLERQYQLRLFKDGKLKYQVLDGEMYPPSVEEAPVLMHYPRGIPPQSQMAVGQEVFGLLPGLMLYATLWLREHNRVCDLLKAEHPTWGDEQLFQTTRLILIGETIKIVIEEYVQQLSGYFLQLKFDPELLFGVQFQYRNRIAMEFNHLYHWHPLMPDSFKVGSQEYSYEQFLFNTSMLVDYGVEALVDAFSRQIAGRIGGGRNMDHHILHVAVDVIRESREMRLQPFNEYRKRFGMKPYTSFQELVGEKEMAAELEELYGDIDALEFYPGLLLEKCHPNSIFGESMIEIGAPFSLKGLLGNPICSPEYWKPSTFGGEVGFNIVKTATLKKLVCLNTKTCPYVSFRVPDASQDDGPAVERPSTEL
Description: Figure 3 Effects of the fluorinated benzofuran and dihydrobenzofuran on COX-1 and COX-2 activities. (A) Illustration for COX-1 activity assay. HEK-293 cells stably overexpressing COX-1 are treated with the nine derivatives of benzofuran at concentrations of only 10 µM for compounds 1, 7, and 9, and 50 µM for the other compounds, 30 min prior to the addition of 10 µM arachidonic acid (AA). […] (B) COX-1 activity. […] Levels of PGE2 were very low in the absence of arachidonic acid (0.04 ± 0.01 ng/mL) and 104.3 ± 16.7 ng/mL for 10 µM AA. (C) Illustration for COX-2 activity determination. Macrophages are treated with 10 µM of aspirin (ASA) for 30 min to block basal COX activity, washed, and treated with 10 ng/mL LPS for 24 h to induce COX-2. Cells are then washed and incubated 30 min with 50 µM of the different compounds prior to the addition of 10 µM of AA. The produced PGE2 mainly reflects COX-2 activity. (D) COX-2 activity. Percentage of LPS-treated cells was calculated, and data are represented as mean ± SEM (n = 4); * p < 0.05 versus AA for COX-1 activity, and versus LPS + ASA + AA for COX-2 activity (one-way ANOVA followed by Dunnett’s test). […] Levels of PGE2 were very low in the absence of arachidonic acid (0.06 ± 0.01 ng/mL) and 71.7 ± 5.7 ng/mL for 10 µM AA.
as §4, with “COX-1 and COX-2 activities were performed as described previously in human embryonic kidney cell line (HEK-293) stably overexpressing COX-1 [19] and in macrophages, respectively. […] For” for “For”
as §3

Structure (SMILES) | effect on CCL2 secretion (CCL2) | IC50 (CCL2) [µM] | blocking of PGE2 formation in response to LPS (PGE2) | IC50 (PGE2; Mus musculus, Macrophage) [µM] | IC50 (PGE2) [µM] | effect on COX-2 activity (COX-2) | effect on COX-1 activity (COX-1) | IC50 (COX-1) [µM] | effect on PGE2 production in response to LPS (PGE2) | IC50 (COX-2) [µM]
COC(=O)/C=C1/Oc2ccc(Br)cc2C1(F)F [Compound 1] | moderate effect | 8 | – | – | – | – | – | – | – | –
O=C(O)/C=C1/Oc2ccc(Br)cc2C1(F)F [Compound 2] | significant decreases | 1.52 | more than 50% | 1.92 | 1.91 | – | – | – | – | –
O=C(O)/C=C1\Oc2ccc(Br)cc2C1(F)F [Compound 3] | significant decreases | 1.5 | more than 50% | 1.48 | – | slight reduction | significantly reduced | 7.9 | – | –
O=C(O)Cc1oc2ccc(-c3ccccc3)cc2c1F [Compound 5] | – | – | – | 1.92 | – | strongly reduced; also recorded: direct inhibitory effect | direct inhibitory effect | – | very potent inhibitors | 28.1
C=C(C)c1ccc2oc(CC(=O)O)c(F)c2c1 [Compound 6] | – | – | – | 1.12 | – | strongly reduced; also recorded: direct inhibitory effect | significantly reduced; also recorded: direct inhibitory effect | 5 | very potent inhibitors | 13
COC(=O)CC1(O)Oc2ccc(Br)cc2C1(F)F (stereo not shown) [Compound 8] | significant decreases | 19.3 | – | 20.5 | – | without any effect | without any effect | – | inhibited partial; also recorded: partial inhibition | –
